# Measurements reported in US5808139A (Ligand Pharmaceuticals Incorporated, priority 1994, dated 1998).
# Where two headings read alike, the source gives them in different places.
# Columns and labels:
# [1] = test system: human progesterone receptor altered at the Tau-1 location; assay: Co-transfection assay in CV-1 cells, progesterone receptor altered at Tau-1, antagonist activity; format: cell-based
# Procedure, shortened: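 CV-1 cells co-transfected with RSV-LTR-driven human PR (altered at Tau-1) and a hormone-responsive luciferase reporter; antagonism measured against a fixed agonist concentration. Luciferase in cell extracts read, triplicate points, potency from concentration-response; […].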
# [2] = biological target: T1, human progesterone receptor (Homo sapiens, UniProt P06401); assay: Displacement of 3H-R5020 from progesterone receptor; settings: FIG. 7c
# T1 sequence (P06401 1-933): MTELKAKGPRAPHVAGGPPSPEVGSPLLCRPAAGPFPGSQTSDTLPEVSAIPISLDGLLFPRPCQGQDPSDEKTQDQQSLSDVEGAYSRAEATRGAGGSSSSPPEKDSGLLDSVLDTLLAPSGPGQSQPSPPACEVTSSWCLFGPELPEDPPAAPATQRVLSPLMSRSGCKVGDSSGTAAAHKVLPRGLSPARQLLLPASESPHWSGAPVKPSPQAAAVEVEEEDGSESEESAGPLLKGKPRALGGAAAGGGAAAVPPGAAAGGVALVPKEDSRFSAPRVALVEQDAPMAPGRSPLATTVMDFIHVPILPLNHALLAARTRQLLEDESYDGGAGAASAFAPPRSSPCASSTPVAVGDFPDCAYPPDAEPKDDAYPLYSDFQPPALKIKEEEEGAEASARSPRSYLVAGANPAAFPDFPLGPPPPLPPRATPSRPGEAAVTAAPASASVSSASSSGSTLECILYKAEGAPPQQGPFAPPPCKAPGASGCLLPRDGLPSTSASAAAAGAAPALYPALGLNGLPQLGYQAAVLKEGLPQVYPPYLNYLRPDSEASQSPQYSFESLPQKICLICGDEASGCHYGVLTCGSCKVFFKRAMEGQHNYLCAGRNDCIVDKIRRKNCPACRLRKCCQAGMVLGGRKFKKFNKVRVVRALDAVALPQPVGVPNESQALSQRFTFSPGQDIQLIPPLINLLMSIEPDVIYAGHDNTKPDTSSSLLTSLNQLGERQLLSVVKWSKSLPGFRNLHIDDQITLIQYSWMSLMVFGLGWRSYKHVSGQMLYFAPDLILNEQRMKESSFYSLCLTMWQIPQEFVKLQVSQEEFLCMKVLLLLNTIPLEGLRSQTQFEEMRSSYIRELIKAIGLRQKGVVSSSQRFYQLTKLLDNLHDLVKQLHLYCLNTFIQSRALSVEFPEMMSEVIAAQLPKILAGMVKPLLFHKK
# [3] = biological target: T1, human progesterone receptor; assay: Co-transfection (cis-trans) assay in CV-1 cells, agonist and antagonist mode; format: cell-based; parameters: expressed in transfected cells; host or cells: CV-1 cells (calcium phosphate transfection), whole cell extract; settings: antagonist mode with 10^-8 M progesterone
# From the text: This assay is described in further detail in U.S. Pat. Nos. 4,981,784 and 5,071,773, which are incorporated herein by reference. The co-transfection assay provides a method for identifying functional ligands (either agonists which mimic, or antagonists which inhibit, the effect of hormones) for ligand-responsive receptor proteins.
# The co-transfection assay provides a mechanism to evaluate ability of a compound to function as an agonist or antagonist of the activity modulated by an intracellular receptor. The co-transfection assay mimics an in vivo system in the laboratory. In the co-transfection assay, a cloned gene for an intracellular receptor is introduced by transfection (a procedure to induce cells to take up foreign genes) into a background cell substantially devoid of endogenous intracellular receptors. This introduced gene directs the recipient cells to make the intracellular receptor protein. A second gene is also introduced (co-transfected) into the same cells in conjunction with the intracellular receptor gene. This second gene functions as a reporter for the transcription-modulating activity of the target intracellular receptor. The reporter acts as a surrogate for the products normally expressed by a gene under control of the target receptor and its natural hormone.
# A preferred reporter gene is one which expresses the firefly enzyme luciferase. The co-transfection assay can detect small molecule agonists or antagonists of target intracellular receptors. Exposing the cells to an agonist ligand increases reporter activity in the transfected cells that can be conveniently measured, reflecting ligand-dependent, intracellular receptor-mediated increases in reporter transcription. To detect antagonists, the co-transfection assay is carried out in the presence of a constant concentration of an agonist known to induce a defined reporter signal. Increasing concentrations of a test antagonist will decrease the reporter signal. The co-transfection assay is therefore useful to detect both agonists and antagonists of specific intracellular receptors. It determines not only whether a compound interacts with a particular intracellular receptor, but also whether this interaction mimics (agonizes) or blocks (antagonizes) the effects of the natural regulatory molecules on target gene expression.
# Co-transfected cells are exposed to a medium to which is added the potential ligand that is being evaluated. If the candidate ligand diffuses into the cell and binds to the receptor and the resulting complex functions as an agonist, it binds to the co-transfected reporter gene and initiates transcription. When that gene is one that expresses, for example, luciferase, luciferase is produced which catalyzes a light-emitting reaction with its substrate luciferin. Thus, after cell lysis and the introduction of luciferin, the amount of light produced relative to the concentration of candidate ligand used in the assay provides a measure of the potency and efficacy of the compound tested. Antagonist activity is evaluated by adding the candidate ligand and a known agonist to the co-transfected cells.
# The receptor cDNA was introduced in a mammalian expression vector under the control of the Rous Sarcoma virus LTR. […] A reporter vector was also transfected, containing a firefly luciferase gene under the control of the hormone-responsive promoter. […] The level of luciferase activity was then measured in cell extracts. Light emission is directly proportional to the effectiveness of the hormone-receptor complex in activating gene expression.
# A total of three replicates per concentration point were tested for each compound, and the EC50 was calculated for each positive response. Both agonist and antagonist activity for each test compound was determined in parallel.
# [4] = biological target: T1, human progesterone receptor; assay: Progesterone receptor binding (displacement of 3H-progesterone, whole cell extract of transfected CV-1 cells); parameters: expressed in transfected cells; host or cells: CV-1 cells (calcium phosphate transfection), whole cell extract; settings: for Displacement of 3H-progesterone from its ligand binding site: 5 nM tritiated progesterone, 0-2.5×10^-5 M compound, 4° C., 24 hours
"IC50 ([1]; read-out: Potency (IC50), CV-1 cells, concentration required to reduce the maximal response by 50%) [nM]",Competition with 3H-R5020 [2],"IC50 ([1]; concentration required to reduce the maximal response by 50%, read-out: Potency (IC50), CV-1 cells) [nM]",Kd [4] [nM],SMILES,Progesterone receptor agonist/antagonist activity [3],Displacement of 3H-progesterone from its ligand binding site [4],"Efficacy (% maximal response relative to RU-486), CV-1 cells ([1]; antagonist activity, relative to RU-486) [%]",Progesterone receptor agonist/antagonist activity ([3]; listed as 3R diastereomer of cyclocymopol monomethyl ether),Progesterone receptor agonist/antagonist activity ([3]; listed as SO-9),"Apparent Bmax of 3H-progesterone ([4]; in the presence of compound, FIG. 8)"
0.1,competitive antagonist of R5020,–,–,"CC#C[C@]1(O)CC[C@H]2[C@@H]3CCC4=CC(=O)CCC4=C3[C@@H](c3ccc(N(C)C)cc3)C[C@@]21C [RU-486, reference compound]",–,–,–,–,–,–
–,–,–,–,C=C1CC[C@@H](Br)C(C)(C)[C@@H]1Cc1cc(OC)c(Br)cc1OC(C)=O [SO-52],progesterone receptor antagonist activity,displaced ^3 H-progesterone from its ligand binding site in a concentration-dependent manner,–,–,–,–
–,did not compete for this binding site,965,450,"C=C1CC[C@@H](Br)C(C)(C)[C@@H]1Cc1cc(OC)c(Br)cc1O [SO-53, (3R)-cyclocymopol monomethyl ether]",progesterone receptor antagonist activity,displaced ^3 H-progesterone from its ligand binding site in a concentration-dependent manner,85,progesterone receptor antagonist activity,progesterone receptor antagonist activity,significantly increased the apparent Bmax
